Experiments:
Assay type in all cases: in vivo
[1] = tested on: chickweed (Stellaria media); experiment: Postemergence herbicidal activity, chickweed; conditions: foliar spray, visual after 2 weeks, 0 no injury, 100 complete kill
How it was run: (§1)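 Greenhouse-grown plants at first or second true leaf stage were sprayed with compound in aqueous acetone/DMSO/isopropanol carrier containing crop oil concentrate and Triton X-155; 1 ppm corresponds to about 1 g/ha. Plants were sub-irrigated, and visual injury versus untreated plants was scored 0–100% after 2 weeks.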

[2] = tested on: cocklebur (Xanthium strumarium); experiment: Postemergence herbicidal activity, cocklebur; conditions: foliar spray, visual after 2 weeks, 0 no injury, 100 complete kill
How it was run: as §1

[3] = tested on: lambsquarters (Chenopodium album); experiment: Postemergence herbicidal activity, lambsquarters; conditions: foliar spray, visual after 2 weeks, 0 no injury, 100 complete kill
How it was run: as §1

[4] = tested on: morningglory (Ipomoea hederacea); experiment: Postemergence herbicidal activity, morningglory; conditions: foliar spray, visual after 2 weeks, 0 no injury, 100 complete kill
How it was run: as §1

[5] = tested on: pigweed (Amaranthus retroflexus); experiment: Postemergence herbicidal activity, pigweed; conditions: foliar spray, visual after 2 weeks, 0 no injury, 100 complete kill
How it was run: as §1

[6] = tested on: velvetleaf (Abutilion theophrasti); experiment: Postemergence herbicidal activity, velvetleaf; conditions: foliar spray, visual after 2 weeks, 0 no injury, 100 complete kill
How it was run: as §1

[7] = tested on: viola (Viola tricolor); experiment: Postemergence herbicidal activity, viola; conditions: foliar spray, visual after 2 weeks, 0 no injury, 100 complete kill
How it was run: as §1

[8] = tested on: wild buckwheat (Polygonum convolvulus); experiment: Postemergence herbicidal activity, wild buckwheat; conditions: foliar spray, visual after 2 weeks, 0 no injury, 100 complete kill
How it was run: as §1

[9] = tested on: blackgrass (Alopecurus myosuroides); experiment: Postemergence herbicidal activity, blackgrass; conditions: foliar spray, visual after 2 weeks, 0 no injury, 100 complete kill
How it was run: as §1

[10] = tested on: giant foxtail (Setaria faberi); experiment: Postemergence herbicidal activity, giant foxtail; conditions: foliar spray, visual after 2 weeks, 0 no injury, 100 complete kill
How it was run: as §1

[11] = tested on: Rox orange sorghum (Sorghum bicolor); experiment: Postemergence herbicidal activity, Rox orange sorghum; conditions: foliar spray, visual after 2 weeks, 0 no injury, 100 complete kill
How it was run: as §1

[12] = tested on: wild oats (Avena fatua); experiment: Postemergence herbicidal activity, wild oats; conditions: foliar spray, visual after 2 weeks, 0 no injury, 100 complete kill
How it was run: as §1

[13] = tested on: cocklebur (Xanthium strumarium); experiment: Preemergence herbicidal activity, cocklebur; conditions: soil spray, visual after 3 weeks, 0 no injury, 100 complete kill or no germination
How it was run: (§2)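 Compounds in acetone/DMSO (97:3) were diluted into water with 0.1% Tween 155 and sprayed onto the soil of freshly seeded pots, with a top rate of 4.48 kg/ha. Pots were kept in a greenhouse (~15 h light, 23-29 °C day, 22-28 °C night) for 3 weeks, then injury was rated visually against untreated pots (0-100%).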

[14] = tested on: lambsquarters (Chenopodium album); experiment: Preemergence herbicidal activity, lambsquarters; conditions: soil spray, visual after 3 weeks, 0 no injury, 100 complete kill or no germination
How it was run: as §2

[15] = tested on: morningglory (Ipomoea hederacea); experiment: Preemergence herbicidal activity, morningglory; conditions: soil spray, visual after 3 weeks, 0 no injury, 100 complete kill or no germination
How it was run: as §2

[16] = tested on: pigweed (Amaranthus retroflexus); experiment: Preemergence herbicidal activity, pigweed; conditions: soil spray, visual after 3 weeks, 0 no injury, 100 complete kill or no germination
How it was run: as §2

[17] = tested on: velvetleaf (Abutilion theophrasti); experiment: Preemergence herbicidal activity, velvetleaf; conditions: soil spray, visual after 3 weeks, 0 no injury, 100 complete kill or no germination
How it was run: as §2

[18] = tested on: wild poinsettia (Euphorbia heterophylla); experiment: Preemergence herbicidal activity, wild poinsettia; conditions: soil spray, visual after 3 weeks, 0 no injury, 100 complete kill or no germination
How it was run: as §2

[19] = tested on: blackgrass (Alopecurus myosuroides); experiment: Preemergence herbicidal activity, blackgrass; conditions: soil spray, visual after 3 weeks, 0 no injury, 100 complete kill or no germination
How it was run: as §2

[20] = tested on: barnyardgrass (Echinochloa crus-galli); experiment: Preemergence herbicidal activity, barnyardgrass; conditions: soil spray, visual after 3 weeks, 0 no injury, 100 complete kill or no germination
How it was run: as §2

[21] = tested on: crabgrass (Digitaria sanguinalis); experiment: Preemergence herbicidal activity, crabgrass; conditions: soil spray, visual after 3 weeks, 0 no injury, 100 complete kill or no germination
How it was run: as §2

[22] = tested on: giant foxtail (Setaria faberi); experiment: Preemergence herbicidal activity, giant foxtail; conditions: soil spray, visual after 3 weeks, 0 no injury, 100 complete kill or no germination
How it was run: as §2

[23] = tested on: Rox orange sorghum (Sorghum bicolor); experiment: Preemergence herbicidal activity, Rox orange sorghum; conditions: soil spray, visual after 3 weeks, 0 no injury, 100 complete kill or no germination
How it was run: as §2

[24] = tested on: wild oats (Avena fatua); experiment: Preemergence herbicidal activity, wild oats; conditions: soil spray, visual after 3 weeks, 0 no injury, 100 complete kill or no germination
How it was run: as §2

SMILES: COc1csc(Cl)c1S(=O)(=O)Nc1nc2c(C)cnc(OC)n2n1 [Compound 21]
- STEME postemergence injury score 0-100 ([1]; 62.5 ppm): 100%
- XANST postemergence injury score 0-100 ([2]; 62.5 ppm): 90%
- CHEAL postemergence injury score 0-100 ([3]; 62.5 ppm): 100%
- IPOHE postemergence injury score 0-100 ([4]; 62.5 ppm): 80%
- AMARE postemergence injury score 0-100 ([5]; 62.5 ppm): 100%
- ABUTH postemergence injury score 0-100 ([6]; 62.5 ppm): 100%
- VIOTR postemergence injury score 0-100 ([7]; 62.5 ppm): 90%
- POLCO postemergence injury score 0-100 ([8]; 62.5 ppm): 100%
- ALOMY postemergence injury score 0-100 ([9]; 62.5 ppm): 30%
- SETFA postemergence injury score 0-100 ([10]; 62.5 ppm): 50%
- SORBI postemergence injury score 0-100 ([11]; 62.5 ppm): 100%
- AVEFA postemergence injury score 0-100 ([12]; 62.5 ppm): 75%
- XANST preemergence injury score 0-100 ([13]; 8.8 g/Ha): 50%
- CHEAL preemergence injury score 0-100 ([14]; 8.8 g/Ha): 70%
- IPOHE preemergence injury score 0-100 ([15]; 8.8 g/Ha): 40%
- AMARE preemergence injury score 0-100 ([16]; 8.8 g/Ha): 60%
- ABUTH preemergence injury score 0-100 ([17]; 8.8 g/Ha): 80%
- EPHHL preemergence injury score 0-100 ([18]; 8.8 g/Ha): 60%
- ALOMY preemergence injury score 0-100 ([19]; 8.8 g/Ha): 70%
- ECHCG preemergence injury score 0-100 ([20]; 8.8 g/Ha): 30%
- DIGSA preemergence injury score 0-100 ([21]; 8.8 g/Ha): 40%
- SETFA preemergence injury score 0-100 ([22]; 8.8 g/Ha): 70%
- SORBI preemergence injury score 0-100 ([23]; 8.8 g/Ha): 70%
- AVEFA preemergence injury score 0-100 ([24]; 8.8 g/Ha): 70%

SMILES: COc1cc(OC)n2nc(NS(=O)(=O)c3c(OC)csc3C(F)(F)F)nc2n1 [Compound 25]
- STEME postemergence injury score 0-100 ([1]; 31 ppm): 60%
- XANST postemergence injury score 0-100 ([2]; 31 ppm): 90%
- CHEAL postemergence injury score 0-100 ([3]; 31 ppm): 90%
- IPOHE postemergence injury score 0-100 ([4]; 31 ppm): 70%
- AMARE postemergence injury score 0-100 ([5]; 31 ppm): 90%
- ABUTH postemergence injury score 0-100 ([6]; 31 ppm): 70%
- VIOTR postemergence injury score 0-100 ([7]; 31 ppm): 70%
- POLCO postemergence injury score 0-100 ([8]; 31 ppm): 70%
- ALOMY postemergence injury score 0-100 ([9]; 31 ppm): 80%
- SETFA postemergence injury score 0-100 ([10]; 31 ppm): 80%
- SORBI postemergence injury score 0-100 ([11]; 31 ppm): 95%
- AVEFA postemergence injury score 0-100 ([12]; 31 ppm): 80%
- XANST preemergence injury score 0-100 ([13]; 17.5 g/Ha): 50%
- CHEAL preemergence injury score 0-100 ([14]; 17.5 g/Ha): 90%
- IPOHE preemergence injury score 0-100 ([15]; 17.5 g/Ha): 60%
- AMARE preemergence injury score 0-100 ([16]; 17.5 g/Ha): 95%
- ABUTH preemergence injury score 0-100 ([17]; 17.5 g/Ha): 80%
- EPHHL preemergence injury score 0-100 ([18]; 17.5 g/Ha): 80%
- ALOMY preemergence injury score 0-100 ([19]; 17.5 g/Ha): 95%
- ECHCG preemergence injury score 0-100 ([20]; 17.5 g/Ha): 85%
- DIGSA preemergence injury score 0-100 ([21]; 17.5 g/Ha): 85%
- SETFA preemergence injury score 0-100 ([22]; 17.5 g/Ha): 85%
- SORBI preemergence injury score 0-100 ([23]; 17.5 g/Ha): 90%
- AVEFA preemergence injury score 0-100 ([24]; 17.5 g/Ha): 80%

SMILES: COc1cc(Cl)sc1S(=O)(=O)Nc1nc2c(OC)cnc(OC)n2n1 [Compound 3]
- STEME postemergence injury score 0-100 ([1]; 31 ppm): 70%
- XANST postemergence injury score 0-100 ([2]; 31 ppm): 100%
- CHEAL postemergence injury score 0-100 ([3]; 31 ppm): 95%
- IPOHE postemergence injury score 0-100 ([4]; 31 ppm): 70%
- AMARE postemergence injury score 0-100 ([5]; 31 ppm): 100%
- ABUTH postemergence injury score 0-100 ([6]; 31 ppm): 70%
- VIOTR postemergence injury score 0-100 ([7]; 31 ppm): 80%
- POLCO postemergence injury score 0-100 ([8]; 31 ppm): 85%
- ALOMY postemergence injury score 0-100 ([9]; 31 ppm): 70%
- SETFA postemergence injury score 0-100 ([10]; 31 ppm): 85%
- SORBI postemergence injury score 0-100 ([11]; 31 ppm): 90%
- AVEFA postemergence injury score 0-100 ([12]; 31 ppm): 80%
- XANST preemergence injury score 0-100 ([13]; 35 g/Ha): 70%
- CHEAL preemergence injury score 0-100 ([14]; 35 g/Ha): 95%
- IPOHE preemergence injury score 0-100 ([15]; 35 g/Ha): 60%
- AMARE preemergence injury score 0-100 ([16]; 35 g/Ha): 95%
- ABUTH preemergence injury score 0-100 ([17]; 35 g/Ha): 50%
- EPHHL preemergence injury score 0-100 ([18]; 35 g/Ha): 70%
- ALOMY preemergence injury score 0-100 ([19]; 35 g/Ha): 80%
- ECHCG preemergence injury score 0-100 ([20]; 35 g/Ha): 70%
- DIGSA preemergence injury score 0-100 ([21]; 35 g/Ha): 95%
- SETFA preemergence injury score 0-100 ([22]; 35 g/Ha): 90%
- SORBI preemergence injury score 0-100 ([23]; 35 g/Ha): 90%
- AVEFA preemergence injury score 0-100 ([24]; 35 g/Ha): 70%

— patent publication US6645918B1, “N-([1,2,4]triazoloazinyl)thiophenesulfonamide compounds and their use as herbicides” (Dow AgroSciences LLC, priority 2000, dated 2003)
